{"source": "patent US9255257B2", "about": "“PmST1 mutants for chemoenzymatic synthesis of sialyl lewis X compounds” (THE REGENTS OF THE UNIVERSITY OF CALIFORNIA, priority 2011, dated 2016)", "key": {"[1]": {"target": "Pasteurella multocida PmST1 double mutant E271F/R313Y of SEQ ID NO: 13 (E247F/R289Y of Δ24PmST1, SEQ ID NO: 11) (Pasteurella multocida, UniProt Q15KI8, E271F/R313Y)", "test": "α2-3-sialidase activity, Neu5Acα2-3LacβMU as substrate", "type": "biochemical", "conditions": "apparent, MES pH 5.5, 37° C., 20 min", "description": "(§1) Site-directed mutagenesis. Site-directed mutagenesis was carried out using the QuikChange multi-site-directed mutagenesis kit from Stratagene according to the manufacturer's protocol. The primers used were 5′-[…] -3′ (SEQ ID NO:32) for E271F and 5′-[…]-3′ (SEQ ID NO:33) for R313Y. The sites of mutations are underlined.\n(§2) Protein Expression and Purification. The plasmids containing the mutant genes were transformed into E. coli BL21 (DE3). The E. coli cells were cultured in LB-rich media (10 g L^−1 tryptone, 5 g L^−1 yeast extract, and 10 g L^−1 NaCl) supplemented with ampicillin (100 μg mL^−1). Overexpression of the mutant proteins was achieved by adding 0.1 mM of isopropyl-1-thio-β-D-galactopyranoside (IPTG) to the E. coli culture when its OD600 nm reached 0.8. The incubation of the induced culture was performed at 37° C. for 3 h with vigorous shaking at 250 rpm in a C25KC incubator shaker (New Brunswick Scientific, Edison, N.J.).\n(§3) His6 (SEQ ID NO:34) tagged mutant proteins were purified from the cell lysate. To obtain the cell lysate, the cell pellet harvested by centrifugation at 4000 rpm for 2 h was resuspended in 20 mL (for cells obtained from one liter culture) of lysis buffer (pH 8.0, 100 mM Tris-HCl containing 0.1% Triton X-100). To lyse the cells, lysozyme (50 μg mL^−1) and DNaseI (3 μg mL^−1) were then added to the resuspended cells followed by shaking at 37° C. for 60 min. The cell lysate was obtained as the supernatant after centrifugation at 11,000 rpm for 20 min. […]\n(§4) All the sialidase and α2-3-sialyltransferase assays were performed in an HPLC system. […] After necessary dilutions were performed to adjust the concentrations of the fluorescent-labeled compounds, the samples were then kept on ice until aliquots of 8 μL were injected and analyzed by a Shimadzu LC-6AD system equipped with a membrane on-line degasser, a temperature control unit, and a fluorescence detector (Shimadzu RF-10AXL). […] The fluorescent compounds LacβMU and Neu5Acα2-3LacβMU were detected by excitation at 325 nm and emission at 372 nm."}, "[2]": {"target": "Pasteurella multocida PmST1 mutant E271F of SEQ ID NO: 13 (E247F of Δ24PmST1, SEQ ID NO: 7) (Pasteurella multocida, UniProt Q15KI8, E271F)", "test": "α2-3-sialidase activity, Neu5Acα2-3LacβMU as substrate", "type": "biochemical", "conditions": "apparent, MES pH 5.5, 37° C., 1 min", "description": "as §1, §2, §3, §4"}, "[3]": {"target": "Pasteurella multocida PmST1 mutant R313Y of SEQ ID NO: 13 (R289Y of Δ24PmST1, SEQ ID NO: 9) (Pasteurella multocida, UniProt Q15KI8, R313Y)", "test": "α2-3-sialidase activity, Neu5Acα2-3LacβMU as substrate", "type": "biochemical", "conditions": "apparent, MES pH 5.5, 37° C., 25 min", "description": "as §1, §2, §3, §4"}, "[4]": {"target": "Pasteurella multocida PmST1 mutant M144D of SEQ ID NO: 13 (M120D of Δ24PmST1, SEQ ID NO: 3) (Pasteurella multocida, UniProt Q15KI8, M144D)", "test": "α2-3-sialidase activity, Neu5Acα2-3LacβMU as substrate", "type": "biochemical", "conditions": "apparent, MES pH 5.5, 37° C., 60 min", "description": "(§5) Site-directed mutagenesis, expression and purification of PmST1 mutants. Site-directed mutagenesis was performed using the QuikChange multi-site-directed mutagenesis kit from Stratagene according to the manufacturer's protocol. The primers used were 5′-[…]-3′ (SEQ ID NO:35) for M144D; 5′-[…]a[…] -3′ (SEQ ID NO:36) for M144H; 5′-[…]-3′ (SEQ ID NO:37) for A35D; and 5′-[…]-3′ (SEQ ID NO:38) for A35H. The expression and purification of the mutants were performed as previously described for the WT PmST1 .\n(§6) Kinetics of the α2-3-sialidase activity of PmST1 mutants. The reactions were performed in duplicate in a total volume of 10 μL at 37° C. for 60 min (M144D) or 15 min (M144H) in MES buffer (100 mM, pH 5.5) containing Neu5Acα2-3LacβMU (0.4, 1, 2, 4, 10, 20, 40 and 60 mM) and an enzyme (M144H, 1.36 mg mL^−1 or M144D, 1.05 mg mL^−1). Sample treatment after the reaction and analysis were carried out by HPLC similar to that described above for the α2-3-sialyltransferase assays."}, "[5]": {"target": "Pasteurella multocida PmST1 mutant M144H of SEQ ID NO: 13 (M120H of Δ24PmST1, SEQ ID NO: 5) (Pasteurella multocida, UniProt Q15KI8, M144H)", "test": "α2-3-sialidase activity, Neu5Acα2-3LacβMU as substrate", "type": "biochemical", "conditions": "apparent, MES pH 5.5, 37° C., 15 min", "description": "as §5, §6"}, "[6]": {"target": "Pasteurella multocida α2-3-sialyltransferase 1 (PmST1), wild type (WT), SEQ ID NO: 13 (Pasteurella multocida, UniProt Q15KI8)", "conditions": "apparent, α2-3-sialidase; cited from earlier work"}, "[7]": {"target": "Pasteurella multocida PmST1 mutant D141A (Pasteurella multocida, UniProt Q15KI8, D141A)", "test": "α2-3-sialidase activity, Neu5Acα2-3LacβMU as substrate", "type": "biochemical", "set-up": "previously obtained mutant (Ni et al. 2006)", "conditions": "apparent, MES pH 5.5, 37° C., 60 min", "description": "(§7) Kinetic Assays. […] The apparent kinetic parameters were obtained by fitting the experimental data (the average values of duplicate assay results) into the Michaelis-Menten equation using Grafit 5.0.\n(§8) All the sialidase and α2-3-sialyltransferase assays were performed in an HPLC system. Reactions were stopped by adding 10 μL of ethanol. After necessary dilutions were performed to adjust the concentrations of the fluorescent-labeled compounds, the samples were then kept on ice until aliquots of 8 μL were injected and analyzed by a Shimadzu LC-6AD system equipped with a membrane on-line degasser, a temperature control unit, and a fluorescence detector (Shimadzu RF-10AXL). A reverse-phase Premier C18 column (250×4.6 mm i.d., 5 μm particle size, Shimadzu) protected with a C18 guard column cartridge was used. The mobile phase was 25% acetonitrile. The fluorescent compounds LacβMU and Neu5Acα2-3LacβMU were detected by excitation at 325 nm and emission at 372 nm."}, "[8]": {"target": "Pasteurella multocida PmST1 mutant H311A (Pasteurella multocida, UniProt Q15KI8, H311A)", "test": "α2-3-sialidase activity, Neu5Acα2-3LacβMU as substrate", "type": "biochemical", "set-up": "previously obtained mutant (Ni et al. 2006)", "conditions": "result in words", "description": "as §7, §8"}}}
{"smiles": "CC(=O)N[C@H]1[C@H]([C@H](O)[C@H](O)CO)O[C@@](O[C@H]2[C@@H](O)[C@@H](CO)O[C@@H](O[C@H]3[C@H](O)[C@@H](O)[C@H](Oc4ccc5c(C)cc(=O)oc5c4)O[C@@H]3CO)[C@@H]2O)(C(=O)O)C[C@@H]1O", "note": "[Neu5Acα2-3LacβMU]", "values": [{"measurement": "kcat", "setting": "[1]", "value": "0.83 ± 0.08", "unit": "s⁻¹"}, {"measurement": "kcat", "setting": "[2]", "value": "0.92 ± 0.04", "unit": "s⁻¹"}, {"measurement": "kcat", "setting": "[3]", "value": "0.18 ± 0.01", "unit": "s⁻¹"}, {"measurement": "kcat", "setting": "[4]", "value": "(3.5 ± 0.1) × 10^−2 s^−1"}, {"measurement": "kcat", "setting": "[5]", "value": "(2.7 ± 0.2) × 10^−2 s^−1"}, {"measurement": "Km", "setting": "[6]", "value": 24, "unit": "mM"}, {"measurement": "kcat", "setting": "[7]", "value": "(1.9 ± 0.1) × 10^−2 s^−1"}, {"measurement": "kinetics of the α2-3-sialidase activity", "setting": "[8]", "value": "too low to obtain the kinetic data"}]}
